# Laboratory results published in patent US20250136592A1, “C-LINKED INHIBITORS OF ENL/AF9 YEATS” (Bridge Medicines, priority 2021, published 2025).
# System: MV4:11 (MLL-AF4 MLL) cells
# Experiment: Cell viability assay (CellTiter-Glo), 12 days
# Assay type: cell-based
# Details: Homo sapiens, 288 h, MV4;11 cells, 12 day, read-out: CTG_MV4, 11 12 DAY_EC50
# Protocol: The assays were conducted over 12 days and the cells being split on days 4 and 8. […] Blank wells received cell culture medium. Plates were incubated for 4 days at 37° C. with 5% CO2. On days 4 and day 8 the cells were split and incubated for a further 4 days whilst an aliquot of cells were taken for the CTG readout. For the cell splitting, 270 nL of compounds or DMSO was added to a new 96 well cell culture plate to which 90 μL of medium plus 10 μL of cells from the original assay plate (after mixing) or 100 μL of medium (Blank wells) was added. This was repeated on day 8.
# Cell viability was assessed using the CellTiter-Glo® homogeneous luminescent assay kit (Promega, G9243), according to the manufacturer's instructions. This quantifies ATP, which indicates the presence of metabolically active cells. […] The resulting data were analyzed as follows:
# where vehicle are cells treated with 0.3% DMSO, Blank is culture medium. IC50 determinations were calculated by fitting the curve using XLfit (v5.3.1.3): Y=Bottom+(Top−Bottom)/(1+10^((LogIC50−X)*HillSlope)).
row,SMILES,EC50 [µM]
1,CN1C(=O)Cc2cc(C(=O)Nc3cc4[nH]c([C@H]5CCCCN5C)cc4cn3)ccc21 [Example 95],0.451
2,CN1CCC[C@@H]1c1nc2ccc(NC(=O)c3ccc4onc(C5CC5)c4c3)cc2[nH]1 [Example 17],3.25
3,Cc1nc(C(F)(F)F)c2ccc(C(=O)Nc3cc4[nH]c([C@H]5CCCN5C)cc4cn3)cn12 [Example 53],5.29
4,CN1CCC[C@@H]1c1nc2cc(NC(=O)c3ccc4c(-c5ccncc5)noc4c3)ccc2[nH]1 [Example 13],0.359
5,Cc1ccc2cc(C(=O)Nc3cnc4cc([C@H]5CCCN5C)[nH]c4c3)c(F)cc2n1 [Example 73],1.42
6,CN1CCCC[C@@H]1c1cc2cnc(NC(=O)c3ccc4c(cnn4C)c3)cc2[nH]1 [Example 98],0.44
7,"Cc1cc2ccc(C(=O)Nc3cc4[nH]c([C@H]5CCCN5C)cc4cn3)cn2n1 [Example 1, 2-methyl-N-{2-[(2R)-1-methylpyrrolidin-2-yl]-1H-pyrrolo[3,2-c]pyridin-6-yl}pyrazolo[1,5-a]pyridine-6-carboxamide]",3.25
8,CN1CCC[C@@H]1c1cc2cnc(NC(=O)c3ccc4c(c3)nnn4-c3ccncc3)cc2[nH]1 [Example 85],0.488
9,"CN1CCCC1c1nc2cnc(NC(=O)c3ccc4c(cnn4C)c3)cc2[nH]1 (stereo not drawn) [Example 2, 1-methyl-N-(2-(1-methylpyrrolidin-2-yl)-1H-imidazo[4,5-c]pyridin-6-yl)-1H-indazole-5-carboxamide]",1.32
10,"CNc1nccc2cc(C(=O)Nc3cc4[nH]c([C@H]5CCCN5C)cc4cn3)ccc12 [Example 79, (R)-1-(methylamino)-N-(2-(1-methylpyrrolidin-2-yl)-1H-pyrrolo[3,2-c]pyridin-6-yl) isoquinoline-6-carboxamide]",0.446
11,"CN1CCC[C@@H]1c1nc2cc(NC(=O)c3ccc4c(cnn4-c4ccncc4)c3)ccc2[nH]1 [Example 3, (R)—N-(2-(1-methylpyrrolidin-2-yl)-1H-benzo[d]imidazol-5-yl)-1-(pyridin-4-yl)-1H-indazole-5-carboxamide]",0.571

# Stronger by EC50, values ahead:
row,EC50 [µM],SMILES
1,0.215,"CN1CCCC[C@@H]1c1cc2cnc(NC(=O)c3ccc4nnn(C)c4c3)cc2[nH]1 [Example 91, (R)-1-methyl-N-(2-(1-methylpiperidin-2-yl)-1H-pyrrolo[3,2-c]pyridin-6-yl)-1H-benzo[d][1,2,3]triazole-6-carboxamide]"
2,0.106,CN1CCC[C@@H]1c1nc2ccc(NC(=O)c3cc4cccnc4cc3F)cc2[nH]1 [Example 16]
3,0.202,"CN1CCCC[C@@H]1c1cc2cnc(NC(=O)c3ccc4c(=O)n(C)ccc4c3)cc2[nH]1 [Example 100, (R)-2-methyl-N-(2-(1-methylpiperidin-2-yl)-1H-pyrrolo[3,2-c]pyridin-6-yl)-1-oxo-1,2-dihydroisoquinoline-6-carboxamide]"
4,0.146,CN1CCCC[C@@H]1c1cc2cnc(NC(=O)c3ccc4cc(=O)n(C)n4c3)cc2[nH]1 [Example 97]
5,0.22,Cc1nc(C)n2cc(C(=O)Nc3cc4[nH]c([C@H]5CCCN5C)cc4cn3)ccc12 [Example 71]
6,0.187,"Cc1nccc2cc(C(=O)Nc3cc4[nH]c([C@H]5CCCCN5C)cc4cn3)ccc12 [Example 80, (R)-1-methyl-N-(2-(1-methylpiperidin-2-yl)-1H-pyrrolo[3,2-c]pyridin-6-yl) isoquinoline-6-carboxamide]"
7,0.28,CN1CCC[C@@H]1c1nc2ccc(NC(=O)c3ccc4c(C5CC5)nn(C)c4c3)cc2[nH]1 [Example 10]
